From patent US10435361B2, “Kinase inhibitors” (Topivert Pharma Limited, priority 2013, dated 2019) come the findings set out here.

Where two headings read alike, the source gives them in different places.

Format in all cases: cell-based
For one assay, the system named is d-U937 cells. Kind of assay: LPS-induced TNFα/IL-8 release in d-U937 cells. The conditions noted are these: Homo sapiens, dU937, assay (aa). The protocol:
U937 cells, a human monocytic cell line, are differentiated to macrophage-type cells by incubation with phorbol myristate acetate (PMA; 100 ng/mL) for 48 to 72 hr. Cells are pre-incubated with final concentrations of test compound for 2 hr and are then stimulated with 0.1 μg/mL of LPS (from E. Coli: 0111:B4, Sigma) for 4 hr. The supernatant is collected for determination of TNFα and IL-8 concentrations by sandwich ELISA (Duo-set, R&D systems). […] The relative 50% effective concentration (REC50) is determined from the resultant concentration-response curve. The inhibition of IL-8 production is calculated at each concentration of test compound by comparison with vehicle control.

The subject of assay [1] is PBMCs. Kind of assay: IL-2 and IFN gamma release in CD3/CD28 stimulated PBMC cells. The conditions noted are these: Homo sapiens, assay (c). A digest of the protocol:
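Healthy-donor PBMCs, density-gradient isolated, stimulated on plates pre-coated with anti-CD3 (0.3 μg/mL) and anti-CD28 (3 μg/mL) antibodies, with compound, for 3 days under standard culture conditions. IC50 derived from the dose-response curve.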

Assay [2] deals with PBMCs. Briefly: Cell mitosis assay in PBMCs. The conditions noted are these: Homo sapiens, PBMC, 5 μg/mL. A digest of the protocol: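 Human PBMCs from healthy donors, density-gradient isolated, stimulated with 2% PHA 48 h, then exposed 20 h to test compounds; demecolcine 0.1 μg/mL added 2 h before harvest. Fixed/permeabilised cells stained for phospho-histone H3 and propidium iodide; mitotic lymphocytes counted by flow cytometry.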

In assay [3] the test system is PBMCs. Kind of assay: LPS-induced TNFα/IL-8 release in PBMC cells. The conditions noted are these: Homo sapiens, assay (b), read-out: IC50 Values for Inhibition of Cytokine Release PBMCs IL-8. A digest of the protocol:
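Healthy-donor PBMCs isolated by density gradient were pretreated with compound for 2 h, then stimulated with 1 ng/mL LPS (E. coli 0111:B4) for 24 h at 37° C., 5% CO2. IL-8 and TNFα in supernatants measured by sandwich ELISA.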

The test system of another assay is HT29 cells. Kind of assay: IL-1β-induced IL-8 release in HT29 cells. The conditions noted are these: Homo sapiens, HT-29, assay (d), read-out: IC50 Values for Inhibition of Cytokine Release HT29 cells IL-8. The protocol: HT29 cells, a human colon adenocarcinoma cell line, are plated in a 96 well plate (24 hr) and pre-treated with compounds at the desired concentration for 2 hours before addition of 5 ng/mL of IL-1β (Abcam) for 24 hours. Supernatants are harvested for IL-8 quantification by Sandwich ELISA (Duo-set, R&D System). The IC50 is determined from the dose response curve.

The mark [4] stands for this setting: method: relative to 10 μg/mL BIRB796 (REC50), read-out: IC50 Values for Inhibition of Cytokine Release dU937 cells TNFα.
Setting [5] is: read-out: IC50 Values for Inhibition of Cytokine Release dU937 cells IL-8.
[6] abbreviates: read-out: IC50 Values for Inhibition of Cytokine Release PBMCs IFNγ.
The mark [7] stands for this setting: read-out: IC50 Values for Inhibition of Cytokine Release PBMCs IL-2.

The term IC50 denotes the concentration at which inhibition is half-maximal. The term inhibition denotes the change of the read-out against control, counted positive when it falls. A high value points to a response far below the control. For the compound `COc1cc(Nc2nccc(Oc3ccc(NC(=O)Nc4cc(C(C)(C)C)cc(NS(C)(=O)=O)c4OC)c4ccccc34)n2)cc(S(=O)(=O)C2CC2)c1` [Example 5, N-(5-(tert-Butyl)-3-(3-(4-((2-((3-(cyclopropylsulfonyl)-5-methoxyphenyl)amino)pyrimidin-4-yl)oxy)naphthalen-1-yl)ureido)-2-methoxyphenyl)methanesulfonamide], the IC50 amounted to 0.5 nM in the assay with d-U937 cells (setting [4]); 1.4 nM in the assay on d-U937 cells (setting [5]); 10.3 nM in the assay with PBMCs [1] (setting [6]); 151 nM with PBMCs [1] (setting [7]); 2.4 nM in the assay on PBMCs [3]; 6.8 nM in the assay with HT29 cells. Also, in the assay with PBMCs [2], 5 µg/mL produced 44.9% inhibition.

Turning to `COCCOCCOCCOc1cc(Nc2nccc(Oc3ccc(NC(=O)Nc4cc(C(C)(C)C)cc(NS(C)(=O)=O)c4OC)c(Cl)c3Cl)n2)cc(OC)c1` [Example 10, N-(5-(tert-Butyl)-3-(3-(2,3-dichloro-4-((2-((3-methoxy-5-(2-(2-(2-methoxyethoxy)ethoxy)-ethoxy)phenyl)amino)pyrimidin-4-yl)oxy)phenyl)ureido)-2-methoxyphenyl)-methanesulfonamide], the IC50 with d-U937 cells (setting [4]) came to 0.3 nM; with d-U937 cells (setting [5]), 0.8 nM; in the assay on PBMCs [1] (setting [6]), 4.4 nM; with PBMCs [1] (setting [7]) it was 9 nM; in the assay on PBMCs [3] it was 2.3 nM; in the assay on HT29 cells, 4.6 nM. In the assay on PBMCs [2], this compound yielded an inhibition at 5 µg/mL of 70.2%.

`COCCOCCOCCOc1cc(Nc2cc(Oc3ccc(NC(=O)Nc4cc(C(C)(C)C)cc(NS(C)(=O)=O)c4OC)c4ccccc34)ccn2)cc(OC)c1` [Example 11, N-(5-(tert-Butyl)-2-methoxy-3-(3-(4-((2-((3-methoxy-5-(2-(2-(2-methoxyethoxy)ethoxy)-ethoxy)phenyl)amino)pyridin-4-yl)oxy)naphthalen-1-yl)ureido)phenyl)-methanesulfonamide]: the IC50 in the assay with d-U937 cells (setting [4]) amounted to 1.2 nM; with d-U937 cells (setting [5]), 1.4 nM; with PBMCs [1] (setting [6]), 17.7 nM; with PBMCs [1] (setting [7]), 73.6 nM; in the assay on PBMCs [3] it was 2.6 nM; in the assay on HT29 cells, 9.3 nM. 5 µg/mL produced 33.5% inhibition in the assay on PBMCs [2].

On to `COCCOCCOCCOCCOCCOCCOCCOc1cc(Nc2nccc(Oc3ccc(NC(=O)Nc4cc(C(C)(C)C)cc(NS(C)(=O)=O)c4OC)c4ccccc34)n2)cc(OC)c1` [Example 14, N-(3-(3-(4-((2-((3-(2,5,8,11,14,17,20-Heptaoxadocosan-22-yloxy)-5-methoxyphenyl)amino)-pyrimidin-4-yl)oxy)naphthalen-1-yl)ureido)-5-(tert-butyl)-2-methoxyphenyl)-methanesulfonamide], for which the concentration for half-maximal inhibition (IC50) in the assay on d-U937 cells (setting [4]) was 0.5 nM; in the assay with d-U937 cells (setting [5]), 0.6 nM; in the assay with PBMCs [1] (setting [6]), 19.7 nM; in the assay with PBMCs [1] (setting [7]) it was 182 nM; in the assay on PBMCs [3], 1.7 nM; in the assay on HT29 cells, 3 nM. The compound also displayed an inhibition at 5 µg/mL with PBMCs [2] of 49.8%.

Consider `COCCOCCOCCOc1cc(Nc2nccc(Oc3ccc(NC(=O)Nc4cc(C(C)(C)C)cc(NS(C)(=O)=O)c4OC)c4ccccc34)n2)cc(OC(F)F)c1` [Example 17, N-(5-(tert-Butyl)-3-(3-(4-((2-((3-(difluoromethoxy)-5-(2-(2-(2-methoxyethoxy)ethoxy)-ethoxy)phenyl)amino)pyrimidin-4-yl)oxy)naphthalen-1-yl)ureido)-2-methoxyphenyl)-methanesulfonamide], for which the IC50 was 1.4 nM with d-U937 cells (setting [5]); 8.2 nM in the assay with PBMCs [1] (setting [6]); 65.6 nM with PBMCs [1] (setting [7]); 1.8 nM with PBMCs [3]; 5.1 nM in the assay on HT29 cells. Besides, the inhibition at 5 µg/mL with PBMCs [2] turned out to be 37%.

For `C#Cc1cc(Nc2cc(Oc3ccc(NC(=O)Nc4cc(C(C)(C)C)cc(C(N)=O)c4OC)c4ccccc34)ccn2)cc(C(=O)NCCOCCOCCOC)c1` [Example 53, 3-((4-((4-(3-(5-(tert-Butyl)-3-carbamoyl-2-methoxyphenyl)ureido)naphthalen-1-yl)oxy)pyridin-2-yl)amino)-5-ethynyl-N-(2-(2-(2-methoxyethoxy)ethoxy)ethyl)benzamide], the IC50 stood at 14.9 nM with PBMCs [1] (setting [6]), 181 nM in the assay on PBMCs [1] (setting [7]), 1.6 nM in the assay on PBMCs [3] and 6.4 nM in the assay with HT29 cells. In the assay with PBMCs [2], this compound showed an inhibition at 5 µg/mL of 30.3%.

For the compound `COCCOCCOCCOc1cc(Nc2nccc(Oc3ccc(NC(=O)Nc4cc(C(C)(C)C)cc(S(N)(=O)=O)c4OC)c4ccccc34)n2)cc(OC)c1` [Example 55, 5-(tert-Butyl)-2-methoxy-3-(3-(4-((2-((3-methoxy-5-(2-(2-(2-methoxyethoxy)ethoxy)-ethoxy)phenyl)amino)pyrimidin-4-yl)oxy)naphthalen-1-yl)ureido)benzenesulfonamide], the IC50 in the assay with PBMCs [1] (setting [6]) was 12 nM; in the assay with PBMCs [1] (setting [7]), 35.2 nM; with PBMCs [3], 2.2 nM; in the assay on HT29 cells, 4.5 nM. The compound further returned an inhibition at 5 µg/mL in the assay on PBMCs [2] of 54.3%.

`C#Cc1cc(Nc2nccc(Oc3ccc(NC(=O)Nc4cc(C(C)(C)C)cc(NS(C)(=O)=O)c4OC)c4ccccc34)n2)cc(C(=O)N[C@H](C)CN2CCOCC2)c1` [Example 56, (R)-3-((4-((4-(3-(5-(tert-Butyl)-2-methoxy-3-(methylsulfonamido)phenyl)ureido)-naphthalen-1-yl)oxy)pyrimidin-2-yl)amino)-5-ethynyl-N-(1-morpholinopropan-2-yl)-benzamide]: the IC50 in the assay on PBMCs [1] (setting [6]) is 12.2 nM; with PBMCs [1] (setting [7]), 35.2 nM; in the assay with PBMCs [3], 1.8 nM; in the assay on HT29 cells, 8.6 nM. Besides, in the assay on PBMCs [2], at 5 µg/mL the inhibition was 46.4%.

`C#Cc1cc(Nc2nccc(Oc3ccc(NC(=O)Nc4cc(C(C)(C)C)cc(NS(C)(=O)=O)c4OC)c4ccccc34)n2)cc(C(=O)N[C@@H](C)CN2CCOCC2)c1` [Example 57, (S)-3-((4-((4-(3-(5-(tert-butyl)-2-methoxy-3-(methylsulfonamido)phenyl)ureido)-naphthalen-1-yl)oxy)pyrimidin-2-yl)amino)-5-ethynyl-N-(1-morpholinopropan-2-yl)benzamide]: the IC50 was 74.5 nM in the assay with PBMCs [1] (setting [6]), 140 nM with PBMCs [1] (setting [7]), 3.6 nM in the assay on PBMCs [3] and 21.2 nM with HT29 cells. The inhibition at 5 µg/mL in the assay with PBMCs [2] is 42.1%.

Consider `COCCOCCOCCOc1cc(Nc2nccc(Oc3ccc(NC(=O)Nc4cc(C(C)(C)C)cc(NS(C)(=O)=O)c4OC)c4ccccc34)n2)cc(OC)c1Cl` [Example 58, N-(5-(tert-Butyl)-3-(3-(4-((2-((4-chloro-3-methoxy-5-(2-(2-(2-methoxyethoxy)ethoxy)ethoxy)-phenyl)amino)pyrimidin-4-yl)oxy)naphthalen-1-yl)ureido)-2-methoxyphenyl)-methanesulfonamide], for which the IC50 in the assay on PBMCs [1] (setting [6]) turned out to be 17.1 nM; in the assay on PBMCs [1] (setting [7]), 137 nM; in the assay on PBMCs [3] it was 2.6 nM; with HT29 cells it was 10.6 nM. Also, in the assay with PBMCs [2], the inhibition at 5 µg/mL was found to be 41.7%.

Regarding `C#Cc1cc(Nc2cc(Oc3ccc(NC(=O)Nc4cc(NS(C)(=O)=O)cc(C(C)(C)C)c4)c4ccccc34)ccn2)cc(C(=O)NCCN2CCOCC2)c1` [Example 65, 3-((4-((4-(3-(3-(tert-Butyl)-5-(methylsulfonamido)phenyl)ureido)naphthalen-1-yl)oxy)-pyridin-2-yl)amino)-5-ethynyl-N-(2-morpholinoethyl)benzamide], the IC50 was determined as 34.4 nM in the assay on PBMCs [1] (setting [6]), 131 nM in the assay on PBMCs [1] (setting [7]), 4 nM in the assay on PBMCs [3] and 145 nM in the assay with HT29 cells. In addition, 5 µg/mL produced 51.1% inhibition with PBMCs [2].
